Test results as given in patent US20230277494A1, “TRANS-CROCETIN COMPOSITIONS AND TREATMENT REGIMENS” (priority 2020, published 2023).

Assays:
[1] = human, in vivo; cited from earlier work
[2] = mouse, in vivo, iv
[3] = Phase 2 clinical study of liposomal trans-crocetin, pharmacokinetics; settings: human, in vivo
From the text: A phase 2 clinical study was initiated to assess the safety and efficacy of liposomal trans-crocetin in patients with acute respiratory distress syndrome due to COVID-19 disease. This was an open label phase II study of treatment with liposomal trans-crocetin in patients who experience severe acute respiratory distress syndrome (ARDS) and were receiving artificial respiratory support due to COVID-19. The purpose of this study was to evaluate the improvement in PaO2/FiO2 by more than 25% in two cohorts of patients treated liposomal trans-crocetin. In the first cohort, patients received trans-crocetin at a dose of 0.25 mg/kg administered as intravenous (IV) bolus every 3 hours. The second cohort was treated by a liposomal formulation containing trans-crocetin. […] Pharmacokinetic assessment was carried out to identify an optimal dose and schedule. […] Secondary outcome measures included (1) proportion of patients with a PaO2/FiO2 ratio above 200 mm Hg (Time Frame: 24, 48 and 72 hours), and (2) all cause mortality (Time Frame: 28 days).
The primary purpose of this study was to determine a safe dosing regimen of liposomal trans-crocetin and to assess preliminary efficacy as measured by improvement in PaO2/FiO2 by more than 25% in patients treated with liposome encapsulated trans-crocetin, as well as safety and the pharmacokinetic profile of liposome encapsulated trans-crocetin. […]

[4] = diffusion of oxygen in plasma, FIG. 12; cited from earlier work

| Compound | safety in clinical trials [1] | Cmax [2] | AUC and Cmax across a wide range of body weights [3] | improvement in diffusion capacity [4] |
| --- | --- | --- | --- | --- |
| CC(/C=C/C=C(\C)C(=O)[O-])=C\C=C\C=C(C)\C=C\C=C(/C)C(=O)[O-].[Na+].[Na+] [STC free drug, sodium trans-crocetinate] | no safety concerns | 360 µg/mL | – | – |
| CC(/C=C/C=C(\C)C(=O)O)=C\C=C\C=C(C)\C=C\C=C(/C)C(=O)O [trans-crocetin] | – | – | stable levels | 30% |
